Key:
A549 lung cancer cells = test: Apoptotic cells by TdT-FACS analysis; type: cell-based, human
Experimental: Approximately 10^4 cells were seeded on tissue culture plates 24 h before drug treatment or adenoviral infection. […] FIG. 4C—A549 lung cancer cells were examined for apoptotic cell death 48 h after FZ and Ad5p53 treatment alone or in combination. Percent apoptotic cells were measured by TdT-FACS analysis.
For TdT FACS analysis control and treated cells were collected by trypsinization, washed in PBS, and fixed overnight in 70% ethanol. The next day, cells were rehydrated in PBS for 30 min, centrifuged, and resuspended in PBS. For DNA analysis, propidium iodide (PI) was added at 50 μg/ml, and the cells were incubated in the presence of RNase A (15 mg/ml for 30 min at 37° C.). To detect DNA strand breaks associated with apoptosis, cells were fixed in 1% formaldehyde for 15 min at 4° C., rinsed in PBS, and stored at 4° C. in ice-cold 70% ethanol. Before staining, the cells were washed in PBS, and 10^6 cells were resuspended in 50 ml of cacodylated buffer containing 100 μ/ml TdT enzyme and 0.5 nM biotin-16 dUTP for 30 min at 37° C. Cells were washed in PBS and resuspended in 100 ml of 4×SSC containing 2.5 mg/ml fluoresceinated avidin, 0.1% Triton X-100, and 5% dry fat milk and then incubated at room temperature for 30 min in the dark. […] Flow cytometry was carried out in a fluorescence-activated cell sorter (Epics Elite; Coulter, Inc., Hialeah, Fla.).

[1] = tested on: H1299 (p53 deleted), H322 (p53 mutated), H460 (wt p53) and A549 (wt p53) human lung cancer cell lines; test: 3-day growth assay with Ad5p53 and FZ; type: cell-based
Experimental: In those assays, growing, cultured cells were trypsinized and plated (10^4 cells/well) and then infected the next day with Ad5p53 at 1 MOI. Viral supernatant was then added, after which cells were incubated for 24 h, washed with PBS, fed fresh medium or incubated with medium containing FZ for 24 h, washed again, and fed fresh medium. In contrast, uninfected cells (controls) were treated with FZ for 24 h, washed with PBS, fed fresh medium, and then subjected to a 3-day growth assay (FIG. 4A).

[2] = tested on: H460 NSCLC cell lines resistant to taxol or vinorelbine; test: Cell death of microtubule drug resistant cells; type: cell-based, human; conditions: MZ 0.5 μM, 48 h time point
Experimental: The inventors have developed H460 NSCLC cell lines that are resistant to the microtubule drugs: taxol (7 nM) or vinorelbine (9 nM). These cell lines show a marked cross resistance to each other. For example Taxol resistant cells show resistance to Vinorelbine mediated cell death. […] Thus, MZ can be effectively used for killing multi-drug resistant (MDR) cells in a clinical setting.

H460 NSCLC cells = test: Cell cycle profiles by FACS, MZ and vinorelbine; type: cell-based, human
Experimental: FIG. 10. MZ Enhances activity of anti-mictotic drugs in H460 NSCLC cells. H460 cells were treated with low dose of MZ or Vinorelbine. Cell cycle profiles indicating G1/S G2-Mphases were analyzed by FACS.
The doses of MZ and vinorelbine were chosen to be “sub-therapeutic”. […] Thus, in H460 NSCLC cells mebendazole enhances the activity of anti-mitotic drugs.

VEGF = VEGF expression/secretion in H460 cell line; type: cell-based, human; conditions: H460, treatment period 18 hours
Experimental: FIG. 7. Percent Inhibition of VEGF Expression in H460 Cell Line After MZ Treatment. Treatment period was 18 hours; control (C); treatment (T).
One of the most encouraging findings is that MZ inhibited the neovascularization in the human xenografts tested. […] The inventors have thus shown that MZ is a potent antiangiogeneic agent. It had no effect on endothelial cell growth, instead directly targeting tumor cells in vivo. MZ may be effective in the treatment of cancer and other angiogenesis-dependent diseases.

[3] = tested on: tumor vascularity of H460 xenografts (CD31); test: Immunohistochemical analysis of CD31 in H460 tumors; type: in vivo, nu/nu mice; conditions: H460 xenografts in nude mice
Experimental: Subcutaneous H460 tumors established in nu/nu mice that were either not treated or treated with MZ were harvested and fixed in 4% buffered formalin, paraffin embedded, and cut as […] thick sections. Tissue sections were stained for CD31 expression using rat anti-mouse CD31 antibody (Pharmingen) as previously described with slight modifications. Briefly, following deparafinzation and rehydration, tissue sections were treated with 0.3% H2O2 in methanol for 30 min to block endogenous peroxidase activity and were subsequently incubated with normal rat serum for 30 min at room temperature. Following incubation, slides were treated with protease for 15 min followed with rat monoclonal anti-CD31 antibody (1:1000 dilution) for 60 minutes. After 30 min incubation with anti-rat secondary antibody (provided with ABC kit, Vector) CD31 in tissues was detected with DAB by enhancement with avidin-biotin reaction ABC kit. The slides were counterstained with hematoxylin and then mounted with Aqua-mount (Lerner Labs, Pittsburgh, Pa.). The number of vascular areas staining positive for CD31 were analyzed under bright-field microscopy. A total of at least five fields per specimen were analyzed. In all the staining procedures, appropriate negative controls were included. […]

[4] = tested on: human lung cancer cell lines (H460 and A549); test: In vitro proliferation assay with MZ, cell count; type: cell-based; conditions: 24 h treatment, read-out: half maximal inhibitory concentration (IC50)
Experimental: (§1) Cells of the human non-small cell lung cancer (NSCLC) cell line A549, WI-38 normal fibroblast (American Type Culture Collection, Rockville, Md.) and H460 (a gift from Drs. Adi Gazdar and John Minna. University of Texas Southwestern Medical Center, Dallas) were seeded on culture plates (2×10^4 cells/well) in F12 and RPMI medium, respectively, supplemented with 10% heat-inactivated fetal calf serum and antibiotics. HUVEC were grown in medium supplemented with growth factor (Clonetics, San Diego). The cells were then exposed to MZ dissolved in dimethyl sulfoxide (DMSO) when grown to 40-50% confluence. Cell growth was monitored by counting the cells using a hemocytometer.
(§2) Initially, the inventors examined the effect of MZ on proliferation of human lung cancer cell lines (H460 and A549) in vitro.

[5] = tested on: human vascular endothelial cells (HUVEC); test: In vitro proliferation assay with MZ, cell count; type: cell-based; conditions: 24 h treatment
Experimental: as §1, §2

normal fibroblast = test: In vitro proliferation assay with MZ, cell count; type: cell-based, human; conditions: 24 h treatment
Experimental: as §1, §2

[6] = tested on: H460 human non-small cell lung cancer xenograft; type: in vivo, athymic nu/nu mice
Experimental: Mice that had received 3.5 Gy of total body irradiation 1 day before inoculation were given injections into the shoulder of 2×10^6 tumor cells. Mice were then given MZ oral suspension (100 mg Vermox chewable tablet, Janssen Pharmaceutica, NJ, suspended in 10 ml PBS by sonication for 30 sec) with indicated concentration every other day, starting the day after 3-5 mm tumor established. Five mice were used in each group. Control and treated mice were then monitored for tumor growth; the tumors were measured externally in cross-sectional diameter every 7 days. Tumor volumes were calculated as previously described. Experiments were repeated three times.
The in vitro effect of MZ on proliferation of tumor cell lines prompted us to investigate its antitumor activity in an athymic nu/nu mouse model. Tumors were established by subcutaneous injection of H460 cells, a human non-small cell lung cancer (NSCLC) cell line ([…] cells/mouse) (FIG. 5B). […] Moreover, 10/10 animals inoculated with 1×10^6 cells developed tumors within 12 days. […] T0.2, T0.4 and T0.8 correspond to 0.2, 0.4 and 0.8 mg of MZ treatment groups (FIG. 5C). Animals with established tumors, 3-5 mm in diameter, received MZ every other day for 4 weeks, after which tumors were harvested, photographed, and weighed.

[7] = tested on: breast, ovarian and colon carcinoma and osteosarcoma; test: In vitro proliferation assay with MZ; type: cell-based; conditions: Homo sapiens

Structure (SMILES): COC(=O)Nc1nc2ccc(Sc3ccccc3)cc2[nH]1 [Fenbendazole, methy 5-(phenylthio)-2-benzimidazole-2-carbamate]
- apoptotic cells (A549 lung cancer cells; 48 h after combination treatment FZ and Ad5p53): 30%
- apoptotic cells (A549 lung cancer cells; FZ treatment alone): 11%
- cell growth after FZ alone, p53-mutated and deleted cells ([1]; 0.05 μg/ml FZ for 24 h): not growth inhibited
- growth inhibition after FZ alone, wt p53 H460 cells ([1]; 0.05 μg/ml FZ for 24 h): significantly so
- cell growth after Ad5p53 plus FZ ([1]; Ad5p53-transduced cells (1 MOI, 24 h) treated with FZ for 24 h, all four cell lines, 3-days growth assay): striking growth inhibition

Structure (SMILES): COC(=O)Nc1nc2ccc(C(=O)c3ccccc3)cc2[nH]1 [Mebendazole, Methyl 5-benzoylbenzimidazole-2-carbamate]
- cell death [2]: 40-70%
- apoptosis (sub-G0 cells) under combination of MZ and vinorelbine (H460 NSCLC cells; 24-48 hr cultures): pronounced apoptosis
- interaction of MZ combined with Vinorelbine (H460 NSCLC cells; low doses of both drugs): synergistic interaction
- apoptosis under monotherapy (H460 NSCLC cells; sub-therapeutic low dose): No apoptosis
- VEGF secretion (VEGF): marked down-regulation
- neovascularization (blood vessel density, CD31) [3]: profoundly reduced
- IC50 [4]: ~120 nM
- effect on growth of HUVEC [5]: no effect
- effect on growth of normal fibroblast (normal fibroblast): no effect
- tumor growth, dose escalation ([6]; 0.2, 0.4 and 0.8 mg of MZ every other day): suppressed the growth of the tumors in a dose-dependent manner
- tumor weight versus control animals ([6]; MZ every other day for 4 weeks): marked difference
- tumor growth ([6]; established tumors (3 mm), 1 mg of MZ orally every other day): profoundly inhibit tumor growth
- toxicity in treated mice ([6]; mouse, in vivo): no signs of toxicity
- IC50 [7]: 100 to 800 nM
